Read-outs that look alike come from different tables or passages of the source.
Tests used:
[1] = molecular target: T1, recombinant soluble tissue factor and recombinant human factor VIIa (TF-VIIa) (Homo sapiens, UniProt P08709); assay: TF-VIIa Assay; assay type: biochemical
T1 construct: conversion of coagulation factor VII to VIIa by Xa; purchased American Diagnostica, Greenwich Conn; host or cells: VIIa purchased; soluble TF made in house in E. coli

[2] = molecular target: Human factor Xa (Homo sapiens, UniProt P00742); assay: Xa Assay; assay type: biochemical; set-up: purchased Enzyme Research Laboratories, South Bend Ind; settings: for % Inhibition Factor Xa at 100 μM / inhibition at 100 µM: at 100 μM inhibitor
Chain of Human factor Xa (P00742 41-179 limits assumed): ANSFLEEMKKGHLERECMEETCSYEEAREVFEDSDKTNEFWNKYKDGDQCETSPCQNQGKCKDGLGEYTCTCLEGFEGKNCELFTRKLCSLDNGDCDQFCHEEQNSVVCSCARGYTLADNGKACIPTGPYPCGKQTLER
Chain of Human factor Xa (P00742 235-488 limits assumed): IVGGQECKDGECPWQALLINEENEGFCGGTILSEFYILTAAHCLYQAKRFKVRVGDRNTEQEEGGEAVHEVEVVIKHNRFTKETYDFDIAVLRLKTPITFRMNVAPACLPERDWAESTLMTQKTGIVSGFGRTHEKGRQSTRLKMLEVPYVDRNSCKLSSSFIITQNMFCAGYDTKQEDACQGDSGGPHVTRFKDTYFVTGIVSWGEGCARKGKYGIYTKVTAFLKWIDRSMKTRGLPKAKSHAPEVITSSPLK

T1 sequence (P08709 61-212 limits assumed): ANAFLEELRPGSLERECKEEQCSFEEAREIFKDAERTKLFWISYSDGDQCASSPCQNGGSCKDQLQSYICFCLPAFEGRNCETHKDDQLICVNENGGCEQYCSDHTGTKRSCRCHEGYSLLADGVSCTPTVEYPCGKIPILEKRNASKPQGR
T1 sequence (P08709 213-466 limits assumed): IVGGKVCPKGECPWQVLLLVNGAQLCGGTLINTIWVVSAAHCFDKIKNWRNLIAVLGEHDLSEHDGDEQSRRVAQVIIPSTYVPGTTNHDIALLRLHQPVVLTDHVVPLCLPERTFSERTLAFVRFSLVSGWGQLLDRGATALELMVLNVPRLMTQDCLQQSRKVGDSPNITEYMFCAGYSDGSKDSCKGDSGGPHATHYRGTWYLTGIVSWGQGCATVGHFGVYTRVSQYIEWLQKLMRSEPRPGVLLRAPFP
T1 sequence (P13726 33-251 partner limits assumed): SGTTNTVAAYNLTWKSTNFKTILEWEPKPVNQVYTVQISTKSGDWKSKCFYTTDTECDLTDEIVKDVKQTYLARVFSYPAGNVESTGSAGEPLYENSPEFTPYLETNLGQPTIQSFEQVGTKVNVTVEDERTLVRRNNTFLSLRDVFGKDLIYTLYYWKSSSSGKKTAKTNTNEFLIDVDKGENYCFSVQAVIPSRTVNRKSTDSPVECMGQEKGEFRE

Row | % Inhibition TF-VIIa (100 µM) ([1]; inhibitor at 100 µM) | % Inhibition Factor Xa (100 µM) ([2]; inhibitor at 100 µM) | Structure (SMILES) | further results
1 | – | – | N=C(N)c1ccc(CNC(=O)Cn2c(-c3ccc(-c4ccccc4)cc3)c(Cl)nc(NCCc3ccccc3)c2=O)cc1 [1471-71] | % Inhibition TF-VIIa (30 µM) ([1]; at 30 µM inhibitor): 6%; % Inhibition Factor Xa (30 µM) ([2]; at 30 µM inhibitor): 0%
2 | 0% | 0% | O=C(Cn1c(-c2ccc(Cl)cc2)c(Cl)nc(NCCc2ccccc2)c1=O)NCCc1ccncc1 [Example E-0026] | –
3 | 0% | 0% | O=C(Cn1c(-c2ccc3c(c2)OCO3)c(Cl)nc(NCCc2ccccc2)c1=O)NCCc1ccncc1 [Example E-0042] | –
4 | 0% | 0% | Cc1c(Cl)nc(NCCc2cccc(Cl)c2)c(=O)n1CC(=O)NCCc1ccncc1 [Example E-0003] | –
5 | – | – | CC(=O)Nc1cccc(-c2c(Cl)nc(NC(C)C)c(=O)n2CC(=O)NCCc2ccc(C(=N)N)cc2)c1 [Example 68] | % Inhibition TF-VIIa (30 µM) ([1]; at 30 µM inhibitor): 32%; % Inhibition Factor Xa (30 µM) ([2]; at 30 µM inhibitor): 6%
6 | 0% | 0% | O=C(Cn1c(CCc2ccccc2)c(Cl)nc(NCc2ccncc2)c1=O)NCCc1ccncc1 [Example E-0072] | –
7 | 0% | 1% | O=C(Cn1c(-c2cccc(Cl)c2)c(Cl)nc(NCCc2ccccc2)c1=O)NCCc1ccncc1 [Example E-0076] | –
8 | – | – | CC(C)Nc1nc(Cl)c(-c2cc(N)cc(C(=O)NCc3ccc(Cl)cc3Cl)c2)n(CC(=O)NCc2ccc(C(=N)N)cc2)c1=O [Example 128-5] | IC50 ([1]; read-out: IC50 TF-VIIa): 84.7 nM; % Inhibition Factor Xa at 100 μM [2]: 43% at 100 μM
9 | – | – | N=C(N)c1ccc(CNC(=O)Cn2c(-c3ccccc3)c(Cl)nc(NCc3cccc(OC(F)(F)F)c3)c2=O)cc1 [1512-40] | % Inhibition TF-VIIa (30 µM) ([1]; at 30 µM inhibitor): 40%; % Inhibition Factor Xa (30 µM) ([2]; at 30 µM inhibitor): 3%
10 | 4% | 0% | COc1ccc(-c2c(Cl)nc(NCCc3cccc(Cl)c3)c(=O)n2CC(=O)NCCc2ccncc2)cc1 [Example E-0035] | –
11 | 0% | 0% | Cc1c(Cl)nc(NCCN2CCOCC2)c(=O)n1CC(=O)NCCc1ccncc1 [Example E-0007] | –
12 | 0% | 0% | Cc1c(Cl)nc(NCCc2ccc(Cl)cc2)c(=O)n1CC(=O)NCCc1ccncc1 [Example E-0004] | –
13 | – | – | O=C(Cn1c(-c2ccc(-c3ccccc3)cc2)c(Cl)nc(NCc2ccccc2)c1=O)NCCc1ccncc1 [Example E-0109] | % Inhibition TF-VIIa (100 µM) [1]: 2%; % Inhibition Factor Xa (100 µM) [2]: 3%
14 | 0% | 0% | O=C(Cn1c(-c2ccc3c(c2)OCO3)c(Cl)nc(NCCc2ccc(Cl)cc2)c1=O)NCCc1ccncc1 [Example E-0044] | –
15 | 5% | 3% | COc1ccc(-c2c(Cl)nc(NCCc3ccc(Cl)cc3)c(=O)n2CC(=O)NCCc2ccncc2)cc1 [Example E-0106] | –
16 | 0% | 0% | O=C(Cn1c(-c2cccc(Cl)c2)c(Cl)nc(NCc2ccccc2)c1=O)NCCc1ccncc1 [Example E-0085] | –
17 | 0% | 0% | O=C(Cn1c(CCc2ccccc2)c(Cl)nc(NCCc2cccnc2)c1=O)NCCc1ccncc1 [Example E-0069] | –
18 | – | – | COc1ccc(-c2c(Cl)nc(NCCc3cccnc3)c(=O)n2CC(=O)NCc2ccc(C(=N)N)cc2)cc1 [1471-40] | % Inhibition TF-VIIa (30 µM) ([1]; at 30 µM inhibitor): 40%; % Inhibition Factor Xa (30 µM) ([2]; at 30 µM inhibitor): 11%
19 | – | – | CC(CNc1nc(Cl)c(-c2cccc(N)c2)n(CC(=O)NCc2ccc(C(=N)N)cc2)c1=O)C(=O)O (stereo not drawn) [Example 129] | IC50 ([1]; cell adds 'at 100 μM'): 58 nM; inhibition at 100 µM [2]: 22%
20 | 1% | 3% | O=C(Cn1c(-c2cccc(Cl)c2)c(Cl)nc(NCCc2cccc(Cl)c2)c1=O)NCCc1cccnc1 [Example E-0092] | –
21 | 0% | 0% | O=C(Cn1c(-c2ccccc2)c(Cl)nc(NCCc2cccc(Cl)c2)c1=O)NCCc1ccncc1 [Example E-0011] | –
22 | – | – | N=C(N)NCC#CCNC(=O)Cn1c(-c2ccccc2)cnc(NCCc2ccccc2)c1=O [Example 36] | % Inhibition TF-VIIa (30 µM) ([1]; at 30 µM inhibitor): 5%; % Inhibition Factor Xa (30 µM) ([2]; at 30 µM inhibitor): 0%
23 | – | – | N=C(N)c1ccc(CNC(=O)Cn2c(-c3ccc(-c4ccccc4)cc3)c(Cl)nc(NCc3ccncc3)c2=O)cc1 [1471-67] | % Inhibition TF-VIIa (30 µM) ([1]; at 30 µM inhibitor): 12%; % Inhibition Factor Xa (30 µM) ([2]; at 30 µM inhibitor): 16%
24 | – | – | N=C(N)c1ccc(CNC(=O)Cn2c(-c3ccccc3)c(Cl)nc(NC3Cc4ccccc4C3)c2=O)cc1 [1507-08] | % Inhibition TF-VIIa (30 µM) ([1]; at 30 µM inhibitor): 7%; % Inhibition Factor Xa (30 µM) ([2]; at 30 µM inhibitor): 1%
25 | – | – | N=C(N)c1ccc(CNC(=O)Cn2c(-c3ccccc3)c(Cl)nc(NCc3ccccn3)c2=O)cc1 [1507-24] | % Inhibition TF-VIIa (30 µM) ([1]; at 30 µM inhibitor): 0%; % Inhibition Factor Xa (30 µM) ([2]; at 30 µM inhibitor): 15%
26 | 0% | 0% | O=C(Cn1c(-c2ccc(Cl)cc2)c(Cl)nc(NCc2ccccc2)c1=O)NCCc1ccncc1 [Example E-0025] | –

Row | % Inhibition TF-VIIa (100 µM) ([1]; inhibitor at 100 µM) | % Inhibition Factor Xa (100 µM) ([2]; inhibitor at 100 µM) | Structure (SMILES) | further results
27 | 1% | 0% | O=C(Cn1c(-c2ccc(Cl)cc2)c(Cl)nc(NCCc2ccccc2)c1=O)NCCc1ccncc1 [Example E-0018] | –
28 | – | – | N=C(N)c1ccc(CNC(=O)Cn2c(-c3ccccc3)c(Cl)nc(NCC3CC3)c2=O)cc1 [Example 1517-43] | % Inhibition TF-VIIa (30 µM) ([1]; at 30 µM): 25%; % Inhibition Factor Xa (30 µM) ([2]; at 30 µM): 0%
29 | – | – | CC(C)Nc1nc(Cl)c(-c2cc(N)cc(C(N)=O)c2)n(CC(=O)NCc2ccc(C(=N)N)cc2)c1=O [Example 128-1] | IC50 ([1]; read-out: IC50 TF-VIIa): 22 nM; inhibition at 100 µM [2]: 25%
30 | – | – | Cc1cc(Cl)cc(Cl)c1CNc1nc(Cl)c(-c2ccccc2)n(CC(=O)NCc2ccc(C(=N)N)cc2)c1=O [1512-45] | % Inhibition TF-VIIa (30 µM) ([1]; at 30 µM inhibitor): 27%; % Inhibition Factor Xa (30 µM) ([2]; at 30 µM inhibitor): 11%
31 | 0% | 0% | O=C(Cn1c(Cc2ccccc2)c(Cl)nc(NCCc2ccccc2)c1=O)NCCc1ccncc1 [Example E-0058] | –
32 | – | – | O=C(Cn1c(-c2ccc(-c3ccccc3)cc2)c(Cl)nc(NCCc2ccc(Cl)cc2)c1=O)NCCc1ccncc1 [Example E-0052] | % Inhibition TF-VIIa (100 µM) [1]: 0%; % Inhibition Factor Xa (100 µM) [2]: 0%
33 | 3% | 4% | O=C(Cn1c(-c2cccc(Cl)c2)c(Cl)nc(NCCc2ccccc2)c1=O)NCCc1cccnc1 [Example E-0089] | –
34 | – | – | CC(CC(=O)O)Nc1nc(Cl)c(-c2cccc(N)c2)n(CC(=O)NCc2ccc(C(=N)N)cc2)c1=O (stereo not drawn) [Example 130] | IC50 ([1]; read-out: IC50 TF-VIIa, cell printed 'at 100 μM' without %, cell adds 'at 100 μM'): 180 nM; % Inhibition Factor Xa at 100 μM [2]: 24% at 100 μM
35 | 0% | 3% | COc1ccc(-c2c(Cl)nc(NCc3ccccc3)c(=O)n2CC(=O)NCCc2ccncc2)cc1 [Example E-0097] | –
36 | – | – | NC1=NCCSc2cc(CNC(=O)Cn3c(-c4cccc(N)c4)c(Cl)nc(NC4CCC4)c3=O)ccc21 [Example 154] | inhibition at 30 µM ([1]; 1 h, at 30 µM inhibitor): 7%; % Inhibition Factor Xa (30 µM) ([2]; at 30 µM inhibitor): 6%
37 | – | – | N=C(N)c1ccc(CNC(=O)Cn2c(-c3ccc(C(=N)N)cc3)c(Cl)nc(NC3CCC3)c2=O)cc1 [Example 113] | IC50 ([1]; read-out: IC50 TF-VIIa): 6190 nM; IC50 [2]: 14000 nM
38 | – | – | COc1ccc(-c2c(Cl)nc(NCc3ccccc3)c(=O)n2CC(=O)NCc2ccc(C(=N)N)cc2)cc1 [1471-33] | % Inhibition TF-VIIa (30 µM) ([1]; at 30 µM inhibitor): 31%; % Inhibition Factor Xa (30 µM) ([2]; at 30 µM inhibitor): 22%
39 | 0% | 3% | O=C(Cn1c(-c2cccc(Cl)c2)c(Cl)nc(NCCc2ccccc2)c1=O)NCCc1ccncc1 [Example E-0088] | –
40 | – | – | N=C(N)c1ccc(CNC(=O)C(Cc2ccccc2)n2c(-c3ccccc3)c(Cl)nc(NC3CCC3)c2=O)cc1 (stereo not drawn) [Example 1517-08] | % Inhibition TF-VIIa (30 µM) ([1]; at 30 µM inhibitor): 43%; % Inhibition Factor Xa (30 µM) ([2]; at 30 µM inhibitor): 0%
41 | 0% | 0% | COc1ccc(-c2c(Cl)nc(NCCc3ccc(Cl)cc3)c(=O)n2CC(=O)NCCc2ccncc2)cc1 [Example E-0036] | –
42 | 0% | 0% | COc1ccc(-c2c(Cl)nc(NCc3ccncc3)c(=O)n2CC(=O)NCCc2ccncc2)cc1 [Example E-0040] | –
43 | 0% | 0% | O=C(Cn1c(-c2ccccc2)c(Cl)nc(NCCc2ccc(Cl)cc2)c1=O)NCCc1ccncc1 [Example E-0012] | –
44 | 0% | 3% | O=C(Cn1c(-c2cccc(Cl)c2)c(Cl)nc(NCCc2ccccc2)c1=O)NCCc1cccnc1 [Example E-0077] | –
45 | 0% | 1% | O=C(Cn1c(-c2ccc(Cl)cc2)c(Cl)nc(NCCc2cccnc2)c1=O)NCCc1ccncc1 [Example E-0021] | –
46 | 0% | 0% | Cc1c(Cl)nc(NCc2ccncc2)c(=O)n1CC(=O)NCCc1ccncc1 [Example E-0008] | –
47 | – | – | COc1ccc(-c2c(Cl)nc(NCCN3CCOCC3)c(=O)n2CC(=O)NCc2ccc(C(=N)N)cc2)cc1 [1471-36] | % Inhibition TF-VIIa (30 µM) ([1]; at 30 µM inhibitor): 11%; % Inhibition Factor Xa (30 µM) ([2]; at 30 µM inhibitor): 6%
48 | 0% | 0% | O=C(Cn1c(Cc2ccccc2)c(Cl)nc(NCCN2CCOCC2)c1=O)NCCc1ccncc1 [Example E-0063] | –
49 | 2% | 4% | O=C(Cn1c(-c2cccc(Cl)c2)c(Cl)nc(NCCc2ccc(Cl)cc2)c1=O)NCCc1cccnc1 [Example E-0095] | –
50 | 0% | 0% | O=C(Cn1c(CCc2ccccc2)c(Cl)nc(NCCc2ccccc2)c1=O)NCCc1ccncc1 [Example E-0066] | –
51 | – | – | O=C(Cn1c(-c2ccc(-c3ccccc3)cc2)c(Cl)nc(NCCN2CCOCC2)c1=O)NCCc1ccncc1 [Example E-0055] | % Inhibition TF-VIIa (100 µM) [1]: 0%; % Inhibition Factor Xa (100 µM) [2]: 0%
